Experimental findings from ChEMBL document CHEMBL1201862, “PubChem BioAssay data set” (2004) are described below.

Test systems include DU-145; SK-MEL-2; A549; UACC-257; OVCAR-5; SNB-19; SR; K562; T47D; CCRF-CEM; HOP-92; SF-295; U-251; SN12C; CAKI-1; 786-0; HT-29; NCI-H226; SK-OV-3; MDA-MB-435.
Common to all, as to test: DTP human tumour cell line panel, 48 h

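Where inhibition never reached the appropriate level, the endpoint shown equals the highest concentration tested. Otherwise, values were interpolated linearly from a five-concentration, 48-hour dose response in 96-well plates. GI50 = concentration required for 50% inhibition of growth.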 The source made the active and inactive calls. Cut-off read from the data, not from the text of the source: active = GI50 up to about 1.1 µM and inactive = higher.

In general, GI50 refers to the concentration giving 50% growth inhibition.

Consider `Cc1ccc(S(=O)(=O)OCC(=O)O)cc1`, for which the GI50 with DU-145, in the experiment on SK-MEL-2, in the experiment on A549, with UACC-257, with OVCAR-5 and in the experiment on SNB-19 was > 100 µM (inactive) each time. Moreover, the GI50 in the experiment on SR, in the experiment with K562, in the experiment on T47D, with CCRF-CEM, in the experiment with HOP-92 and with SF-295 was > 100 µM (inactive) each time. The GI50 in the experiment on U-251, in the experiment with SN12C, in the experiment with CAKI-1, with 786-0 and in the experiment on HT-29 was > 100 µM (inactive) throughout.

For the compound `Nc1c(OCC(=O)O)ccc2cc(S(=O)(=O)O)ccc12`, the GI50 with DU-145, in the experiment on SK-MEL-2, with A549, in the experiment on UACC-257, with SNB-19 and in the experiment with NCI-H226 was > 100 µM (inactive) each time. Moreover, the GI50 with K562, in the experiment on T47D, with CCRF-CEM, with SF-295, in the experiment on U-251 and with SK-OV-3 was > 100 µM (inactive) each time. For the same compound, the GI50 in the experiment with SN12C, in the experiment with CAKI-1, with 786-0 and in the experiment on MDA-MB-435 was > 100 µM (inactive) in each case.

Consider `C/C(=C\Cc1ccc(F)cc1)CCCCCC/C(C)=C/Cc1ccc(F)cc1`, for which the GI50 with DU-145 is 14.2 µM (inactive); with SK-MEL-2 it was 16.9 µM (inactive); in the experiment with A549, 3.65 µM (inactive); in the experiment on UACC-257 it was 18.1 µM (inactive); with OVCAR-5, 16.2 µM (inactive); in the experiment on SNB-19 it was 32.9 µM (inactive). For the same compound, the GI50 in the experiment on SR was 18.3 µM (inactive); in the experiment with K562, 5.3 µM (inactive); in the experiment with CCRF-CEM, 8.28 µM (inactive); in the experiment with HOP-92, 10.2 µM (inactive); with SF-295, 10 µM (inactive); in the experiment with U-251, 18.1 µM (inactive). Further, the GI50 in the experiment on SK-OV-3 was 37.8 µM (inactive); with SN12C, 15.7 µM (inactive); in the experiment on CAKI-1, 9.89 µM (inactive); in the experiment with 786-0, 7.13 µM (inactive); in the experiment with HT-29 it was 16.1 µM (inactive); with MDA-MB-435, 16.5 µM (inactive).

Take `CCOC(=O)Cc1c(C)c2ccc(OC(C)=O)c(OC(C)=O)c2oc1=O`: the GI50 with DU-145 was 24.9 µM (inactive); with SK-MEL-2, 49.5 µM (inactive); in the experiment with A549, 21.9 µM (inactive); in the experiment with UACC-257, 14.8 µM (inactive); in the experiment with OVCAR-5, 53.6 µM (inactive); in the experiment on SNB-19, 13.3 µM (inactive). Further, the GI50 in the experiment on SR was 14.3 µM (inactive); in the experiment on NCI-H226 it was 32.7 µM (inactive); in the experiment with K562, 28.8 µM (inactive); in the experiment on CCRF-CEM it was 4.09 µM (inactive); with HOP-92, 17.5 µM (inactive); in the experiment on SF-295 it was 36.7 µM (inactive). The GI50 with U-251 is 23.1 µM (inactive); in the experiment on SK-OV-3 it was > 100 µM (inactive); in the experiment on SN12C, 41.8 µM (inactive); in the experiment with 786-0, 27.7 µM (inactive); in the experiment with HT-29, 29.6 µM (inactive); in the experiment on MDA-MB-435 it was 28.1 µM (inactive).

Regarding `O=C(c1cccc2ccccc12)C1S(=O)(=O)OCCOS1(=O)=O`, the GI50 in the experiment with DU-145, with SK-MEL-2, with A549, with OVCAR-5, in the experiment on SNB-19 and with SR was > 100 µM (inactive) each time. The GI50 is > 100 µM (inactive) with K562; > 100 µM (inactive) in the experiment on CCRF-CEM; 0.0151 µM (active) in the experiment on SF-295; > 100 µM (inactive) in the experiment with U-251; > 100 µM (inactive) with SN12C; > 100 µM (inactive) in the experiment on CAKI-1. Besides, the GI50 in the experiment with 786-0 was > 100 µM (inactive); with HT-29, > 100 µM (inactive); with MDA-MB-435, > 10 µM (inactive).

`CN(N)c1cc(=O)[nH]c(=O)[nH]1`: the GI50 is > 100 µM (inactive) with DU-145; 54 µM (inactive) with A549; > 100 µM (inactive) with UACC-257; > 100 µM (inactive) in the experiment on SNB-19; > 100 µM (inactive) in the experiment on SR; > 100 µM (inactive) in the experiment on NCI-H226. For the same compound, the GI50 in the experiment on K562, in the experiment with T47D, in the experiment with CCRF-CEM, in the experiment with SF-295, in the experiment on SK-OV-3 and in the experiment on SN12C was > 100 µM (inactive) each time. The GI50 is 6.22 µM (inactive) in the experiment with CAKI-1, > 100 µM (inactive) in the experiment on 786-0 and > 100 µM (inactive) in the experiment on HT-29.

For `O=C1/C(=C/c2ccc(Cl)c(Cl)c2)CNC/C1=C\c1ccc(Cl)c(Cl)c1`, the GI50 with DU-145 was 49 µM (inactive); with SK-MEL-2, 23.3 µM (inactive); in the experiment on A549, 14.8 µM (inactive); with UACC-257, 41.2 µM (inactive); in the experiment on OVCAR-5 it was 18.3 µM (inactive); in the experiment on SNB-19, 1.46 µM (inactive). Besides, the GI50 in the experiment on SR is 3.96 µM (inactive); in the experiment on NCI-H226, 21.9 µM (inactive); with K562, 3.1 µM (inactive); with CCRF-CEM it was 2.29 µM (inactive); in the experiment on HOP-92, 22 µM (inactive); with SF-295 it was 9.2 µM (inactive). The GI50 is 5.11 µM (inactive) in the experiment with U-251; 40.7 µM (inactive) in the experiment on SK-OV-3; 5.08 µM (inactive) in the experiment on SN12C; 4.09 µM (inactive) in the experiment with CAKI-1; 2.39 µM (inactive) with 786-0; 5.35 µM (inactive) in the experiment on HT-29. In addition, the GI50 in the experiment with MDA-MB-435 is 20.9 µM (inactive).

Consider `O=c1s[s+]([O-])c2ccccc12` (stereo unspecified), for which the GI50 with DU-145, in the experiment with SK-MEL-2, with A549, in the experiment with UACC-257, with OVCAR-5 and with SNB-19 was > 100 µM (inactive) in each case. The GI50 in the experiment with SR is > 100 µM (inactive); in the experiment on NCI-H226 it was > 100 µM (inactive); with K562 it was 45.7 µM (inactive); in the experiment on CCRF-CEM it was 61.4 µM (inactive); in the experiment on HOP-92 it was > 100 µM (inactive); with SF-295, > 100 µM (inactive). Also, the GI50 with U-251, in the experiment with SK-OV-3, with SN12C, in the experiment on CAKI-1, in the experiment with 786-0 and in the experiment on HT-29 was > 100 µM (inactive) throughout. In addition, the GI50 in the experiment with MDA-MB-435 was > 100 µM (inactive).

With `CCOC(=O)c1[nH]c2ccccc2c1C(=O)C[C@H](NC(=O)C(F)(F)F)C(=O)OC`, the GI50 in the experiment with DU-145, in the experiment with SK-MEL-2, with A549, in the experiment with UACC-257, in the experiment on OVCAR-5 and in the experiment on SNB-19 was > 100 µM (inactive) each time. Also, the GI50 in the experiment on SR, in the experiment with NCI-H226, in the experiment with K562, in the experiment on CCRF-CEM, with HOP-92 and in the experiment with SF-295 was > 100 µM (inactive) in each case. Further, the GI50 with U-251, with SN12C, with CAKI-1, in the experiment with 786-0, in the experiment on HT-29 and with MDA-MB-435 was > 100 µM (inactive) in each case.

For the compound `Cc1ccc(C)n1-c1ccccc1C1C=Cn2c3c1c(=O)c(OC(C)C)c(OC(C)C)c-3n[nH]c2=O` (stereo unspecified), the GI50 in the experiment with DU-145 was 99.3 µM (inactive); with SK-MEL-2, 20 µM (inactive); in the experiment on A549, 23.4 µM (inactive); with UACC-257, 32.6 µM (inactive); in the experiment on OVCAR-5, > 100 µM (inactive); in the experiment on SNB-19, 76.2 µM (inactive). Further, the GI50 with NCI-H226 is 21.4 µM (inactive); with K562, 12.2 µM (inactive); in the experiment on CCRF-CEM, 13.3 µM (inactive); in the experiment on HOP-92 it was 84.7 µM (inactive); with SF-295 it was 27 µM (inactive); with U-251, 32.7 µM (inactive). The GI50 is > 100 µM (inactive) with SK-OV-3; 42 µM (inactive) in the experiment with SN12C; 31.8 µM (inactive) in the experiment with CAKI-1; 20.9 µM (inactive) with 786-0; 19.9 µM (inactive) with HT-29; 21.8 µM (inactive) in the experiment on MDA-MB-435.

In the case of `CC1(C)OC[C@@H]([C@H](O)C2C=CC(=O)S2)O1` (stereo partly specified), the GI50 is 21.2 µM (inactive) with DU-145; 20.3 µM (inactive) with SK-MEL-2; 29.6 µM (inactive) in the experiment on A549; 26.8 µM (inactive) with UACC-257; 63.7 µM (inactive) in the experiment on OVCAR-5; 43.6 µM (inactive) in the experiment with SNB-19. Moreover, the GI50 in the experiment with NCI-H226 is 27.5 µM (inactive); in the experiment with K562 it was 25.4 µM (inactive); in the experiment on CCRF-CEM, 24.1 µM (inactive); in the experiment on HOP-92, 22.4 µM (inactive); in the experiment with SF-295, 27.5 µM (inactive); in the experiment with U-251, 27.7 µM (inactive). In addition, the GI50 is 34.6 µM (inactive) in the experiment with SK-OV-3; 27.9 µM (inactive) in the experiment with SN12C; 28.1 µM (inactive) with CAKI-1; 22.9 µM (inactive) with 786-0; 23.6 µM (inactive) in the experiment with HT-29; 37.8 µM (inactive) with MDA-MB-435.
